{"source": "the OPERA property sets (Mansouri et al. 2018)", "data": [{"units": {"boiling point": "°C", "melting point": "°C"}, "values": [{"smiles": "CCC(C)(O)CCC(C)C", "note": "(stereo not given)", "boiling point": 173}, {"smiles": "CCOc1ccc(O)cc1", "boiling point": 246, "melting point": 66.5}, {"smiles": "O=COC1CCCCC1", "boiling point": 163}, {"smiles": "Fc1ccc(C(F)(F)F)cc1", "boiling point": 104, "melting point": -41.7}, {"smiles": "O=C(CCC(=O)Oc1ccccc1)Oc1ccccc1", "boiling point": 330, "melting point": 121}, {"smiles": "CCCCC(CC)COC(C)=O", "note": "(stereo not given)", "boiling point": 199, "log10 vapour pressure (mmHg)": -0.638, "melting point": -80}, {"smiles": "C(=Cc1ccncc1)c1ccccc1", "ready biodegradability": "readily biodegradable"}, {"smiles": "C[C@H](NC(=O)[C@H](C)NC(=O)[C@@H](N)CCP(C)(=O)O)C(=O)[O-].[Na+]", "melting point": 160}, {"smiles": "CC(C)CCOC(=O)C(=O)OCCC(C)C", "boiling point": 268, "melting point": -9}, {"smiles": "CC1(C)[C@H](/C=C(\\Cl)C(F)(F)F)[C@@H]1C(=O)O[C@H](C#N)c1cccc(Oc2ccccc2)c1", "log10 Koc (L/kg)": 5.26, "log10 vapour pressure (mmHg)": -8.47}, {"smiles": "Clc1ccc(C(Cl)c2ccccc2)cc1", "note": "(stereo not given)", "ready biodegradability": "not readily biodegradable"}, {"smiles": "CCC=Cc1ccccc1", "boiling point": 199, "melting point": -43.1}, {"smiles": "CCCC(CC)c1ccccc1", "note": "(stereo not given)", "boiling point": 209, "melting point": -55.4}, {"smiles": "C=CCCCCl", "boiling point": 105}, {"smiles": "C=COCC", "boiling point": 35.5, "log10 vapour pressure (mmHg)": 2.71, "melting point": -116}, {"smiles": "Brc1cncc2ccccc12", "boiling point": 282, "melting point": 41.5}, {"smiles": "CCCCCCCCCCCI", "log10 vapour pressure (mmHg)": -2.35}, {"smiles": "CC(=O)Nc1ccc(S(=O)(=O)O)cc1", "ready biodegradability": "not readily biodegradable"}, {"smiles": "OC(C1=CC(=C(c2ccccn2)c2ccccn2)C=C1)(c1ccccn1)c1ccccn1", "melting point": 147}, {"smiles": "Oc1ccc(Cl)c(Cl)c1", "boiling point": 253, "log10 Koc (L/kg)": 3.09, "melting point": 68, "ready biodegradability": "not readily biodegradable"}, {"smiles": "CC(=O)OC(C(=O)Cl)c1ccccc1", "note": "(stereo not given)", "melting point": 36}, {"smiles": "Oc1cc(O)cc(-c2cc(O)cc(O)c2)c1", "melting point": 310}, {"smiles": "CCC(C)c1ccc(O)cc1", "note": "(stereo not given)", "boiling point": 241, "log10 vapour pressure (mmHg)": -1.43, "melting point": 61.5, "ready biodegradability": "not readily biodegradable"}, {"smiles": "NC(=O)C(Cl)Cl", "boiling point": 234, "melting point": 99.4}, {"smiles": "CNC(=O)CSP(=S)(OC)OC", "log10 Koc (L/kg)": 1.2, "log10 vapour pressure (mmHg)": -4.73, "melting point": 52, "ready biodegradability": "not readily biodegradable"}, {"smiles": "CCCCSC", "boiling point": 124, "log10 vapour pressure (mmHg)": 1.19, "melting point": -97.8}, {"smiles": "COc1cccc(C)c1", "boiling point": 176, "melting point": -47}, {"smiles": "O=C(O)CCC(=O)C(=O)O", "melting point": 116}, {"smiles": "CN(C)c1ccc(Br)cc1", "boiling point": 264, "melting point": 55}, {"smiles": "CCCCC(=O)OCC", "boiling point": 146, "log10 Koc (L/kg)": 1.97, "log10 vapour pressure (mmHg)": 0.681, "melting point": -91.2}, {"smiles": "CNC(=O)COc1ccccc1OCC(O)CNC(C)(C)C", "note": "(stereo not given)", "melting point": 96.5}, {"smiles": "CCc1cc(C)cc(O)c1", "boiling point": 236, "log10 vapour pressure (mmHg)": -2.06, "melting point": 51.6}, {"smiles": "CCN(C)CC", "boiling point": 66, "melting point": -196}, {"smiles": "C=CC(=O)NC(C)(C)C", "melting point": 128}, {"smiles": "CCCCCCCCC(=O)OCCCCCCC", "melting point": -15.5}, {"smiles": "COc1ccc(N)cc1", "boiling point": 243, "log10 Henry constant (atm·m³/mol)": -7.18, "log10 Koc (L/kg)": 1.93, "log10 vapour pressure (mmHg)": -1.52, "melting point": 57.2, "ready biodegradability": "readily biodegradable"}, {"smiles": "Clc1cc(Cl)cc(-c2c(Cl)c(Cl)cc(Cl)c2Cl)c1", "log10 Henry constant (atm·m³/mol)": -4.54}, {"smiles": "C=CC(=O)OCC(C)C", "boiling point": 132, "log10 vapour pressure (mmHg)": 0.907, "melting point": -61}, {"smiles": "NS(=O)(=O)c1ccc(SCCO)c(F)c1", "melting point": 110}, {"smiles": "CCOC(=O)CS", "boiling point": 157}, {"smiles": "CC1CC(C)NC(C)C1", "note": "(stereo not given)", "boiling point": 145}, {"smiles": "CCCCc1ccccc1O", "boiling point": 235, "log10 vapour pressure (mmHg)": -1.99, "melting point": -20}, {"smiles": "CCF", "boiling point": -37.6, "log10 vapour pressure (mmHg)": 3.84, "melting point": -143}, {"smiles": "CCC#CCCCCC", "boiling point": 157}, {"smiles": "CC1(C)CC(N)CC(C)(C)N1", "boiling point": 188, "melting point": 17}, {"smiles": "O=C(O)c1ccnc(C(=O)O)c1C(=O)O", "melting point": 250}, {"smiles": "CSB(C)C", "boiling point": 71, "melting point": -84}, {"smiles": "CC(CCCl)OCCCl", "note": "(stereo not given)", "boiling point": 195}, {"smiles": "CCCN(CCC)c1c([N+](=O)[O-])cc(C(F)(F)F)c(N)c1[N+](=O)[O-]", "log10 Koc (L/kg)": 4.11, "log10 vapour pressure (mmHg)": -7.61, "melting point": 124}, {"smiles": "COc1ccc(N)c(C)c1", "boiling point": 248, "melting point": 29.5}, {"smiles": "Nc1cc2ccccc2cc1N", "melting point": 199}, {"smiles": "Clc1ccc(CSC(Cn2cncn2)=Nc2ccc(Cl)cc2Cl)cc1", "log10 vapour pressure (mmHg)": -9.2, "melting point": 90}, {"smiles": "CCOc1cccc(F)c1", "boiling point": 172, "melting point": -27.5}, {"smiles": "O=CNC(Nc1ccc(Cl)c(Cl)c1)C(Cl)(Cl)Cl", "note": "(stereo not given)", "melting point": 135}, {"smiles": "OCCCCCCCO", "boiling point": 262, "melting point": 22.5}, {"smiles": "CC(C)(C)C(C)(C)O", "boiling point": 131, "melting point": 17}, {"smiles": "O=C1c2ccccc2C(=O)C1c1ccc(F)cc1", "melting point": 120}, {"smiles": "CCN1C[C@]2(COC)[C@H](O)C[C@H](OC)[C@]34C1[C@H]([C@H](OC)[C@H]23)[C@]1(OC(C)=O)[C@H]2[C@@H](OC(=O)c3ccccc3)[C@](O)(C[C@H]24)[C@@H](OC)[C@@H]1O", "melting point": 204}, {"smiles": "C#C[C@]1(O)CC[C@H]2[C@@H]3CCC4=Cc5oncc5C[C@]4(C)[C@H]3CC[C@@]21C", "melting point": 226}, {"smiles": "CCN(CC)[N+](=O)[O-]", "boiling point": 206}, {"smiles": "CCNP(=S)(OC)O/C(C)=C/C(=O)OC(C)C", "note": "(stereo not given)", "log10 vapour pressure (mmHg)": -4.84}, {"smiles": "CCc1ccc(Cl)cc1", "boiling point": 184, "melting point": -62.6}]}]}
